In patent US20130289070A1, “Use of Levocabastine for Modulating Generation of Pro-Inflammatory Cytokines” (Bausch & Lomb Incorporated, priority 2007, published 2013):

Tested on: EoL-1 (human eosinophilic leukaemia cell line) cells
Experiment: TNF-α-induced cytokine release, differentiated and non-differentiated EoL-1 cells
Assay type: cell-based
Method: EoL-1 (human eosinophilic leukaemia cell line) cells (Saito et al., 1985; Mayumi, 1992) were maintained in RPMI-1640 medium with L-glutamine supplemented with 10% (v/v) FBS at 37° C. in a humidified atmosphere with 5% CO2. Where indicated, 24 h before the experiment 25 ng/mL PMA ((phorbol 12-myristate 13-acetate, purchased from Sigma Aldrich) was added to the medium to induce eosinophil granulation and differentiation (Ohtsu et al., 1993; Zimmermann et al., 2000). Half-million cells were aliquoted per point in a 24 well plate; each experiment was performed in triplicate and carried out in parallel with eosinophils differentiated and non differentiated with PMA (25 ng/mL, 24 h). Cells were suspended in low serum medium (RPMI-1640, 0.1% (v/v) FBS). TNF-α was used to induce cytokine secretion as previously described by Steube et al. (2000), and the net release was obtained by comparison to the basal (non-TNF-α treated). In the first experiment we evaluated the concentration and time relation between TNF-α stimulation and cytokine release. […] An aliquot of 150 μL of supernate was collected for cytokines' analysis. […] Differentiated and non-differentiated EoL-1 cells were exposed from 0.1 to 2.3 mM levocabastine ([…]Levocabastine 0.05% solution eye drops containing cyclodextrins, without benzalkonium chloride), and aliquots of the supernates were collected after 12 and 24 h. The content of cytokines at time zero was estimated by treating the cells with 400 nM calcimycin (A-23187), which is a cytolytic agent that frees all the mediators from the cytoplasmic compartment. In addition, for each experiment we tested the effect of the vehicle, which was added to the wells in a concentration equal to the maximum amount used for drug dilution. Samples (supernates 12 and 24 h) in triplicate were analyzed using Luminex 200™ (Luminex, Austin, Tex.) and Beadview software v1.0 (Upstate Cell Signaling Solutions, Temecula, Calif.). All data are presented as mean±SEM for the indicated number of experiments. Statistical significance was determined by Newman-Keuls test after ANOVA using GraphPad Prism (version 3.0; GraphPad Software Inc., San Diego, Calif., USA).

[1] = TNF-α challenge, text summary of Tables T-1, T-2
[2] = overall conclusion, in a concentration-dependent manner
[3] = overall conclusion, in a concentration-dependent way

C[C@@H]1CN([C@H]2CC[C@](C#N)(c3ccc(F)cc3)CC2)CC[C@]1(C(=O)O)c1ccccc1 [Levocabastine, levocabastine] was tested, and the “release of IL-12p40 induced by TNF-α” value (2 mM, TNF-α 10 ng, 24 h, without PMA or differentiated with it, not influenced by VCAM-1 or fibronectin (FIG. 10)) was “effective in reducing the release”, the “release of VEGF induced by TNF-α” value (2 mM, TNF-α 10 ng, 24 h, without PMA or differentiated with it, not influenced by VCAM-1 or fibronectin (FIG. 14)) was “effective in reducing the release” and the “release of IL-12 P40 induced by TNF-α” value (2 mM, TNF-α 5, 10 and 20 ng, 12 h, without PMA or differentiated with it (FIG. 5)) was “capable of reducing the release”. For the same molecule, the “release of VEGF induced by TNF-α” value (2 mM, TNF-α 5, 10 and 20 ng, 24 h, without PMA or differentiated with it (FIG. 6)) was “capable of reducing the release”, the “release of VEGF induced by TNF-α” value (2 mM, TNF-α 5, 10 and 20 ng, 24 h, without PMA or differentiated with it (FIG. 8)) was “capable of reducing the release” and the “release of IP-10 induced by TNF-α” value (0.1, 0.5 and 1.0 mM, 12 h, without PMA or differentiated with it (FIG. 1)) was “capable to prevent the release”. For the same molecule, the “release of VEGF induced by TNF-α” value (0.1, 0.5 and 1.0 mM, 24 h, without PMA or differentiated with it (FIG. 4)) was “capable to prevent the release”, the “VEGF release (FIG. 14)” value (PMA differentiated and indifferentiated EoL-1 cells, after TNF-α challenge) was “able to reduce” and the “release of IL-1β” value [1] was “significantly reduce”. The “release of IP-10” value [1] was “significantly reduce”, the “TNF-α-induced release of IL-8” value (overall conclusion) was “statistical significant reduction” and the “TNF-α-induced release of IL-12p40” value (overall conclusion) was “statistical significant reduction”. For the same molecule, the “TNF-α-induced release of VEGF” value (overall conclusion) was “statistical significant reduction”, the “cytokine release, general effect” value (overall conclusion, following TNF-α stimulation) was “concentration-related reduction” and the “release of IL1-ra” value [2] was “significantly reduced”. For the same molecule, the “release of IL-1β” value [2] was “significantly reduced”, the “release of IP-10” value [2] was “significantly reduced” and the “secretion of MIP-1α” value [3] was “increasing the secretion”. For the same molecule, the “secretion of RANTES” value [3] was “increasing the secretion”.
